# Assay results: ChEMBL document CHEMBL4261532, “Theoretical models of inhibitory activity for inhibitors of protein-protein interactions: targeting menin-mixed lineage leukemia with small molecules” (Medchemcomm, 2017)
# Key:
# [1] = molecular target: T1, Menin/Histone-lysine N-methyltransferase MLL (Homo sapiens, UniProt O00255); experiment: Inhibition of menin (unknown origin)-FITC-tagged MLL1 (unknown origin) protein-protein interaction after 1 hr by fluorescence polarization assay
# [2] = molecular target: T1, Menin/Histone-lysine N-methyltransferase MLL; experiment: Inhibition of menin (unknown origin)-fluorescein-labeled MLL1 (unknown origin) after 1 hr by fluorescence polarization assay; format: protein assay
# [3] = molecular target: T1, Menin/Histone-lysine N-methyltransferase MLL; experiment: Inhibition of full length human menin-MLL1 (4 to 43 residues) (unknown origin) protein-protein interaction after 1 hr by fluorescence polarization assay
# T1 sequence (O00255 whole entry): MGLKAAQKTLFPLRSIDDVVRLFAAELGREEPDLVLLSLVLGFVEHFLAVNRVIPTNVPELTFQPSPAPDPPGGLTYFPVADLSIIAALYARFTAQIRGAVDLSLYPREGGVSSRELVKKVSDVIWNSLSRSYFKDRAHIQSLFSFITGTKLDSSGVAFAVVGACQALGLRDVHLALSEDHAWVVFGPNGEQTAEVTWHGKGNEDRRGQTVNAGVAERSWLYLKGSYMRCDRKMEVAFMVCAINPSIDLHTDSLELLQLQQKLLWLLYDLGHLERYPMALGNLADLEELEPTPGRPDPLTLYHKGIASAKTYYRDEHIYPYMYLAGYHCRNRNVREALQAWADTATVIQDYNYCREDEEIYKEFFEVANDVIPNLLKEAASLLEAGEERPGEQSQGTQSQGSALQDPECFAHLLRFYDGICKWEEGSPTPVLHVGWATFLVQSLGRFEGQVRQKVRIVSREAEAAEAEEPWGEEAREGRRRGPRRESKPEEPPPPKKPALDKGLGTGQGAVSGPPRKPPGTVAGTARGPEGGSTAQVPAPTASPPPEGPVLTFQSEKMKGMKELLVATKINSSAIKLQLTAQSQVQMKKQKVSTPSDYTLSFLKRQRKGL
# T1 sequence (Q03164 1-2718 partner limits assumed): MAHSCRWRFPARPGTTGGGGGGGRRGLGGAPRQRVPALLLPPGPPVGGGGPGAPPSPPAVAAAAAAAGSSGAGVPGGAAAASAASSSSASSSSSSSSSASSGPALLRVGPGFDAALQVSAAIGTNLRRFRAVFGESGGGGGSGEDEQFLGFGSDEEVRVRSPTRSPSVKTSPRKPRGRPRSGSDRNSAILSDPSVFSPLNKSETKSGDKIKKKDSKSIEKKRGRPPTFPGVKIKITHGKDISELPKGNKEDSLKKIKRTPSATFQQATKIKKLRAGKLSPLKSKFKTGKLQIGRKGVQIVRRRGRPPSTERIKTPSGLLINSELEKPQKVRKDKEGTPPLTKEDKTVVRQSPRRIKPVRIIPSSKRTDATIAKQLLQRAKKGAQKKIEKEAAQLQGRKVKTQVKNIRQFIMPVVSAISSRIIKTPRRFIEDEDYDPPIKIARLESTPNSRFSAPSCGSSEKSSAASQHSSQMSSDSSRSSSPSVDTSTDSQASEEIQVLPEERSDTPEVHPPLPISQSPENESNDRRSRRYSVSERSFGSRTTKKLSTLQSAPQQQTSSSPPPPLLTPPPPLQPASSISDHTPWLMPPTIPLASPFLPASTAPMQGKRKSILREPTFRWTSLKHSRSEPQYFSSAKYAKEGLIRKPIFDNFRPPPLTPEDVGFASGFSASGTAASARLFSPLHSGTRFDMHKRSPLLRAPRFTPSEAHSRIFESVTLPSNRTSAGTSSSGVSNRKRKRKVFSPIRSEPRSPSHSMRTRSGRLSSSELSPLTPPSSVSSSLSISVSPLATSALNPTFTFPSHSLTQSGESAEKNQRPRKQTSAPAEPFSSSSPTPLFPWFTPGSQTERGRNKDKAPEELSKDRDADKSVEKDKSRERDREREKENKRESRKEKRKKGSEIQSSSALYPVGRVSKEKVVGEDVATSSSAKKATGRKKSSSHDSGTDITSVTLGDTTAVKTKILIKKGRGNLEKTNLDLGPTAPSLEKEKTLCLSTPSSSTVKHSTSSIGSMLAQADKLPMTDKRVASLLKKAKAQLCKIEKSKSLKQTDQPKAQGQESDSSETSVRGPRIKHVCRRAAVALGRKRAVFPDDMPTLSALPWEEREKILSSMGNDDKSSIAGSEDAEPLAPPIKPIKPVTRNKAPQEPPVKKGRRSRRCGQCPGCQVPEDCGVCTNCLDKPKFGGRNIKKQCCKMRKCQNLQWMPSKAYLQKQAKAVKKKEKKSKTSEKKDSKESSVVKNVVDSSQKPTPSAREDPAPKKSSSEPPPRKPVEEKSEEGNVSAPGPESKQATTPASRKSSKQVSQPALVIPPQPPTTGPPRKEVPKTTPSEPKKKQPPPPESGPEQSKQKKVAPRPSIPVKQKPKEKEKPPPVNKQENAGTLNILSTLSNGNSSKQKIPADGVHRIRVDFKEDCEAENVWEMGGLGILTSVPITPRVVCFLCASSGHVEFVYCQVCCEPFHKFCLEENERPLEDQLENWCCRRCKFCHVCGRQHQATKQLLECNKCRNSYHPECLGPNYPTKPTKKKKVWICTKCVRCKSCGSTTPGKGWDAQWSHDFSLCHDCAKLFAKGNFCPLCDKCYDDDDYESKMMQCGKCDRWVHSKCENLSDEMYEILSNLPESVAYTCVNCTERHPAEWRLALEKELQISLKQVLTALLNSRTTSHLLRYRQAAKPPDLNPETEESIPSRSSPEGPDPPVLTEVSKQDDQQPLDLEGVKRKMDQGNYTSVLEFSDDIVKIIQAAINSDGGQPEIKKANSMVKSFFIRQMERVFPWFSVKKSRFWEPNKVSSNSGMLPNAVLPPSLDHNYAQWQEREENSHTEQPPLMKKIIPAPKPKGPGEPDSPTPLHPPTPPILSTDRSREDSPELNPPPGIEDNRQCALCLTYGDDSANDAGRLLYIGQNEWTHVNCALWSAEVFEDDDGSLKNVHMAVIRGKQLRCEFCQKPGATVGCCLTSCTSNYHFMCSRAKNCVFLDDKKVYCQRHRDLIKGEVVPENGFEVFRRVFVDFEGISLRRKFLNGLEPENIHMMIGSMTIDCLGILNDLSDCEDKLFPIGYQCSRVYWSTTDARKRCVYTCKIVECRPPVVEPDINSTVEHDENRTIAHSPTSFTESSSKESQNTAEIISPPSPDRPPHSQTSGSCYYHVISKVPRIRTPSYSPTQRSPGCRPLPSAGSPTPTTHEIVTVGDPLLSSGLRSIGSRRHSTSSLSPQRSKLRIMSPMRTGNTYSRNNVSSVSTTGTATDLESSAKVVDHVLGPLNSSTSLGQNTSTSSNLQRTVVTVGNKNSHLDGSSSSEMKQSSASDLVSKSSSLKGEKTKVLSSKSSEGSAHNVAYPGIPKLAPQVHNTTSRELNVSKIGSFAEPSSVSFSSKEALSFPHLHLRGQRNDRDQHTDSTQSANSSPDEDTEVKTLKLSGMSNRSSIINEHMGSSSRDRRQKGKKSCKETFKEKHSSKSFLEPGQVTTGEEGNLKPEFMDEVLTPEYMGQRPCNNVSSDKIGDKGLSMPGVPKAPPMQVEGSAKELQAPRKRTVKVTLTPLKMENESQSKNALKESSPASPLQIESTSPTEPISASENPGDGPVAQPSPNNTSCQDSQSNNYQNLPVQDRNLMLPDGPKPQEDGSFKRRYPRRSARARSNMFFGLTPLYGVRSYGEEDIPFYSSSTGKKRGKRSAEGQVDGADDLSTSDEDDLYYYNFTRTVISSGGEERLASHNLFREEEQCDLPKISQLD
# T1 sequence (Q03164 2719-3969 partner limits assumed): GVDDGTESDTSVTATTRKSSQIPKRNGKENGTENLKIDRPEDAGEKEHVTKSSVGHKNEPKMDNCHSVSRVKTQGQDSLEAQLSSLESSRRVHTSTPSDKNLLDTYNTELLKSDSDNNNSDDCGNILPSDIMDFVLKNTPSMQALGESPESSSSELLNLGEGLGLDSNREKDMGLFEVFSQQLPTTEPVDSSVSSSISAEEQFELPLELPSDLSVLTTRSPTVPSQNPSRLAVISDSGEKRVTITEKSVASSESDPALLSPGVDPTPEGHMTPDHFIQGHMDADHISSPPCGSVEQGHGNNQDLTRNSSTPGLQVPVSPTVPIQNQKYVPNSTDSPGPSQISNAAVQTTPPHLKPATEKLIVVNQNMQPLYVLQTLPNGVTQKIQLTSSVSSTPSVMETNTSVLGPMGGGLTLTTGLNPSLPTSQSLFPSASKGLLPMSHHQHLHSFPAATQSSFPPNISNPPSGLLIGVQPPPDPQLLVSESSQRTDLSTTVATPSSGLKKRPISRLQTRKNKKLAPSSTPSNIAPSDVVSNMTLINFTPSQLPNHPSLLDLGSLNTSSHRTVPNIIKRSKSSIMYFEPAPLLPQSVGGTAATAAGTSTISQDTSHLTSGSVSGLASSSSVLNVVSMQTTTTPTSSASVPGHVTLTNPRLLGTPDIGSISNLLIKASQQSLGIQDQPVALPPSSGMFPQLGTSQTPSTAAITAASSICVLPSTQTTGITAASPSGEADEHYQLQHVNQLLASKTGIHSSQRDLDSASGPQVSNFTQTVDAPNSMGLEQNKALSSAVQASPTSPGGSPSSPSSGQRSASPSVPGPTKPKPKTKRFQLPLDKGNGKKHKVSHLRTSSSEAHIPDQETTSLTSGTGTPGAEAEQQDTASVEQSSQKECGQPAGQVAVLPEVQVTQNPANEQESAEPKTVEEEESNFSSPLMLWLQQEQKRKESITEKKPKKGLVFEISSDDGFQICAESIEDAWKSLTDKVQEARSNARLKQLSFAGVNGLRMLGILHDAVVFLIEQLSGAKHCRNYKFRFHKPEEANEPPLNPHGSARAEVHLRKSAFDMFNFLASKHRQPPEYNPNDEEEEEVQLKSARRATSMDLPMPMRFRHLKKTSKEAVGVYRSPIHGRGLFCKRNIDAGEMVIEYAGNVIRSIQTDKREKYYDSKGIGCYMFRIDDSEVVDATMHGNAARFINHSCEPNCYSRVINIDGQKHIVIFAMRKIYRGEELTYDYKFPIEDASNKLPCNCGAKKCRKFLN
SMILES,IC50 [1],IC50 [2],also measured
CCc1cc2c(N3CCN(c4ccccn4)CC3)ncnc2s1,58 µM,–,–
CCCc1cc2c(N3CCN(c4nnc(C(F)(F)F)s4)CC3)ncnc2s1,–,0.65 µM,–
CCc1cc2c(N3CCN(c4ncccn4)CC3)ncnc2s1,87 µM,–,–
CCc1cc2c(N3CCN(Cc4ccccc4)CC3)ncnc2s1,52 µM,–,–
CC1(C)CN=C(N2CCN(c3ncnc4sc(CCCl)cc34)CC2)S1,–,0.193 µM,–
CCCc1cc2c(N3CCN(c4nnc(C(F)(F)F)[nH]4)CC3)ncnc2s1,–,200 µM,–
CSc1cc2c(N3CCN(c4nnc(C(F)(F)F)s4)CC3)ncnc2s1,–,20 µM,–
CCc1cc2c(N3CCN(c4nncs4)CC3)ncnc2s1,193 µM,–,–
FC(F)(F)Cc1cc2c(N3CCN(c4nnc(C(F)(F)F)o4)CC3)ncnc2s1,–,1.4 µM,–
CCc1cc2c(N3CCN(c4nnc(C(F)(F)F)s4)CC3)ncnc2s1,–,1.3 µM,–
CCCCc1cc2c(N3CCN(C4=NCC(C)(C)S4)CC3)ncnc2s1,0.75 µM,–,–
FC(F)(F)c1nnc(N2CCN(c3ncnc4sc(C5CC5)cc34)CC2)s1,–,2 µM,–
CCc1cc2c(N3CCN(Cc4ccc(Cl)cc4)CC3)ncnc2s1,14 µM,–,–
CC(c1cc2c(N3CCN(C4=NCC(C)(C)S4)CC3)ncnc2s1)C(F)(F)F (stereo not given),–,–,IC50 [3]: 0.765 µM
CCc1cc2c(N3CCN(c4nccs4)CC3)ncnc2s1,46 µM,–,–
